Results as given in a melting point compilation (Tetko et al.; mined from patent text by program, amines drawn as free bases though some values may be those of a salt).

| SMILES | melting point |
| --- | --- |
| O=C1Nc2cc(F)ccc2C1c1ncnc2c1cnn2C1CCCC1 (stereo not given) | 230 to 233 °C |
| Cc1cc(F)cc([N+](=O)[O-])c1C#N | 61 to 63 °C |
| Cc1ccc(Cl)cc1N1CCCN(C)C1=S | 143 to 145 °C |
| COc1ccc(CCN(C)C)c2[nH]c(C(F)(F)F)nc12 | 182 to 185 °C |
| C=Cc1ccc(OC(=O)C(Cl)(Cl)Cl)cc1 | 37 to 39 °C |
| N#CC(N)=C(C#N)N=C=CCc1cnn(-c2c(Cl)cc(C(F)(F)F)cc2Cl)n1 | 207 to 209 °C |
| O=C(O)COc1nnc(C(Cl)(Cl)Cl)s1 | 100 °C |
| CS(=O)(=O)N(Cc1cccnc1)c1ccc(C#N)cc1 | 73 to 75 °C |
| O=c1sc(CO)c(C(F)(F)F)n1-c1ccccc1 | 135 °C |
| CCCNC1=NS(=O)(=O)c2sc(C)cc2N1 | 263 to 264 °C |
| CCOC(=O)C1CC2CC(=O)CCC2CN1C(=O)OC (stereo not given) | 79 to 80 °C |
| Cc1cc2c(c3c1NC(=O)CC3(C)C)OC(CO)C2 (stereo not given) | 165 to 166 °C |
| N#CC(=CN1CCOCC1)C(C[N+](=O)[O-])c1cccc(Cl)c1Cl (stereo not given) | 74 to 77 °C |
| O=C(NCc1cccnc1)c1cc2ccnc(Cl)c2[nH]1 | 189 to 191 °C |
| NC(=S)c1cccc2c1CCCC2=O | 200 to 205 °C |
| O=C(O)CSC12CC3CC(CC(C3)C1)C2 | 71 to 73 °C |
| ClC1=NC2CCCc3c(Cl)ccc(c32)N1 (stereo not given) | 190 to 192 °C |
| CCc1cccc(NC(=O)c2cnn(C)c2N)c1 | 168 to 170 °C |
| Cc1cc(=S)cc(C)n1CCNC(=O)OC(C)(C)C | 175 to 178 °C |
| COC1CN2[C@H]3CC[C@@H]2[C@@H]1[C@@H](c1ccc(Cl)c(Cl)c1)C3 (stereo not given in full) | 139 to 141 °C |
| CN(CCNC(=NCCSCc1csc(NC(=N)N)n1)NC#N)CCN(Cc1ccc(F)cc1)c1ccccn1 | 109 °C |

| SMILES | melting point |
| --- | --- |
| O=C(NC12CC3CC(CC(C3)C1)C2)c1cc(O)c(O)c(Cl)c1 | 244 to 247 °C |
| O=C(O)CC1CSc2sccc2C1=O (stereo not given) | 124 to 127 °C |
| N=c1[nH]c2ccccc2c2nc(-c3ccco3)nn12 | 282 to 285 °C |
| O=C(Nc1ccccc1)N1CCC(c2nn(-c3ccccc3)c3cc(F)ccc23)CC1 | 163 to 165 °C |
| CCCCc1cc(C(=O)O)ncc1C(=O)O | 239 °C |
| Clc1ccc2onc(Cn3ccnc3)c2c1 | 100 to 102 °C |
| C1=Cc2c3c(ccc2=N1)=CC=N3 | 201 to 205 °C |
| COC1(NC(=O)NS(=O)(=O)c2cccc(N=C=O)c2)C=C(C)N=CN1 (stereo not given) | 147 to 157 °C |
| O=C1Nc2ccccc2C1C(=O)C(F)(F)F (stereo not given) | 184 °C |
| CCc1nc2c(N)nc3ccccc3c2n1CCCC1(C)OCCO1 | 195 to 196 °C |
| Cc1cc(C2=NO[C@@](c3cc(Cl)c(F)c(Cl)c3)(C(F)(F)F)C2)ccc1C(=O)NC1CS(=O)(=O)C1 | 134 to 136 °C |
| C#CCCOc1cc(N2C(=O)CC(C(F)(F)F)CC2=O)c(F)cc1Cl | 89 to 91 °C |
| NNc1nccc(-c2ccc(OC3CCOCC3)c(Cl)c2)c1Cl | 173 °C |
| Cc1nc(C)c(Cl)c(NCc2nccc(OCCCCSCCn3c([N+](=O)[O-])cnc3C)c2C)n1 | 114 to 117 °C |
| Cc1sc(C)c2c1CCC=C2c1cn(C(c2ccccc2)(c2ccccc2)c2ccccc2)cn1 | 205 to 207 °C |
| CCCCCCCCCCCCCCCCCCSCCCCCCCCCCC(N)=O | 108 °C |
| CC(C)C1NC(=O)CN1C(=O)CN (stereo not given) | 141 to 143 °C |
| Nc1nc2c(C(CC(=O)O)C3CCCCC3)c[nH]c2c(=O)[nH]1 (stereo not given) | > 300 °C |
| COc1cccc(N)c1C(=O)NC1CCN(C(C)CC(C(=O)N(C)C)(c2ccccc2)c2ccccc2)CC1O (stereo not given) | 175 °C |
| O=[N+]([O-])c1ccc2c(ccn2Cc2cccnc2)c1 | 131 to 134 °C |
| ClCCOc1cccc2ncccc12 | 75 to 78 °C |

Now from value to compound:

| melting point | SMILES |
| --- | --- |
| > 280 °C | Cc1c(F)c(F)c(O)c2c(=O)c(C(=O)O)cn(-c3cc(N)c(F)cc3F)c12 |
| 167 °C | O=C(O)CCCCCn1c2ccccc2c(=O)c2ccccc21 |
| 203 to 205 °C | CC(=O)N[C@@H]1c2cc(C#N)ccc2CC(C)(C)[C@H]1O (relative stereo) |
| 117 to 119 °C | COc1ccc(-c2cc(C)c(C(=O)NCCCCc3cccnc3)c(C)c2)cc1OC |
| 65 to 66 °C | COc1ccccc1C1CC(=O)C(C(C)=O)C(=O)C1 (stereo not given) |
| 116 to 118 °C | O=C(Cc1ccccc1)Nc1cc(Cl)c(Cl)cc1[N+](=O)[O-] |
| 104 °C | COc1ccc(OCCCN(Cc2cccc(O)c2)c2nc3ccccc3o2)cc1 |
| 309 to 311 °C | O=C(O)c1cnn2ccc(-c3ccc(Cl)cc3)nc12 |
| 161 °C | COC(=O)[C@H]1OC(OC(=O)c2ccc(/C=C(\C)c3ccc4c(c3)C(C)(C)CCC4(C)C)cc2)[C@H](OC(C)=O)[C@@H](OC(C)=O)[C@@H]1OC(C)=O (stereo not given in full) |
| 151 °C | CCOc1ccc([N+](=O)[O-])c(NC2Cc3ccccc3C2)c1 |
| 71 °C | COC=C(C(=O)OC)c1ccccc1CSc1ccccc1 |
| 76 to 81 °C | COC(=O)c1sc2c(c1OC(C)C)CN(C(=O)OC(C)(C)C)CC2 |
| 155 to 159 °C | CCCCN(C(=O)c1ccccc1)C1CC(C)(C)N(OC(=O)c2ccccc2)C(C)(C)C1 |
| 151 to 152 °C | CCCCOc1c(C(=O)O)n(CC(C)C)c(=O)c2ccc(OCc3ccccc3)cc12 |
| 121 to 122 °C | CC(C)(C)c1cc(C(C)(C)C)n(Cc2ccc(CO)cc2)n1 |
| 171 to 172 °C | CC(=O)Oc1ccc(-c2c(CBr)c3ccc(OC(C)=O)cc3oc2=O)c(OC(C)=O)c1 |
| 238 to 240 °C | O=C1Nc2cc(Cl)cc(Cl)c2C1c1cc(Cl)ccc1O (stereo not given) |
| 68 to 70 °C | CC(NC(C)CN(CC(C)NC(C)=C1C(=O)CC(C)(C)CC1=O)C(=O)/C=C\C(=O)O)=C1C(=O)CC(C)(C)CC1=O (stereo not given) |
| 223 to 224 °C | Cc1nc(C(O)COc2ccc(CC3SC(=O)NC3=O)cc2)c(C)o1 (stereo not given) |
| 245 to 248 °C | CCOc1cc2c(Nc3cc(OC)c(Cl)cc3Cl)c(C#N)cnc2cc1NC(C)=O |

| melting point | SMILES |
| --- | --- |
| > 250 °C | CCN(CC)S(=O)(=O)c1cc2c(ccc3nc(N)[nH]c(=O)c32)cc1Br |
| 225 to 227 °C | COC(=O)C1=C(COCCn2c(C)nc(C)c2C)Nc2[nH]c(N)nc(=O)c2C1c1ccccc1Cl (stereo not given) |
| 258 to 260 °C | Cn1cc(OS(C)(=O)=O)c(=O)c2ccc(S(C)(=O)=O)cc21 |
| 136 to 137 °C | Nc1c(CC(=O)O)cccc1C(=O)c1ccc(F)cc1 |
| 236 to 237 °C | Cc1cccc2c1nc(-c1cccc(Cl)c1[N+](=O)[O-])n2CC(O)C(C)(C)C (stereo not given) |
| 122 to 123 °C | COc1cc(C(C)C)c(NC(=O)CN2CCN(CCSc3nc4cccc(C(F)(F)F)c4o3)CC2)c(C(C)C)c1 |
| 202 °C | CCOc1cnc(-c2ccc(O)cc2)nc1 |
| 112 to 114 °C | COc1ccc(-n2cccc2-c2ccc(S(N)(=O)=O)cc2)cc1 |
| 204 to 206 °C | NC(N)=NC(=O)Cc1c(-c2ccccc2)csc1-c1ccccc1 |
| 190 to 191 °C | CC(C)S(=O)(=O)c1cc(OCCc2ccccn2)c2[nH]nc(Nc3nccs3)c2c1 |
| 168 to 170 °C | Cc1noc(C)c1-c1cn(Cc2ccccc2)c(=O)c2ncccc12 |
| 102 to 104 °C | CCO/C=C/C(=O)Nc1cccc(Br)c1OC |
| 192 to 194 °C | Cc1ccc(C(=O)Nc2cc(N3CCN(C)CC3)cc(C(F)(F)F)c2)cc1Nc1nccc(-c2cccnc2)n1 |
| 178 to 181 °C | CCCCn1c(=O)c(NC(=O)Nc2c(C(C)C)cccc2C(C)C)c(-c2cccc(OC)c2)c2cccnc21 |
| 128 to 132 °C | CC(C)=CCOc1c(-c2ccc(S(C)(=O)=O)cc2)cnn(-c2ccc(F)cc2)c1=O |
| 147 to 150 °C | CC(=O)OI(OC(C)=O)c1ccc(-c2ccc(Cl)cc2)cc1 |
| 149 to 150 °C | CC(C(=O)NCCN(C)C)c1ccc(-c2cn3ccccc3n2)cc1 (stereo not given) |
| 126 to 128 °C | CC(C(=O)O)c1ccc2ocnc2c1 (stereo not given) |
| 125 to 126 °C | CCC(C)OC(=O)SN(C(=O)N1CC2(C(=O)OC)CCc3ccccc3C2=N1)c1ccc(C(F)(F)F)cc1 (stereo not given) |
| 79 to 81 °C | CC(C)Oc1cc(-n2c(=O)c(F)c(CF)n(C)c2=O)c(F)cc1Cl |

| melting point | SMILES |
| --- | --- |
| 124 to 126 °C | CC(C)(C)OC(=O)Cn1c(-c2ccccn2)nc2cccnc21 |
| 249 °C | COc1cc(C(=O)c2ncc3ccc(NS(C)(=O)=O)cn23)ccc1[N+](=O)[O-] |
| 189 to 192 °C | CCOc1c(-c2nnn[nH]2)oc2c3ccccc3n(-c3ccccc3)c12 |
| 130 to 132 °C | C[C@]1(c2ccccc2)C[C@@]1(NS(=O)(=O)c1ccc(-c2cc(C(F)(F)F)on2)s1)C(=O)O |
| 130 °C | CC(C)(O)C(=O)c1ccc(C(O)c2ccc(C(=O)C(C)(C)O)cc2)cc1 |
| 240 to 241 °C | CCCCn1cc([N+](=O)[O-])c(=O)c2cnc(-c3ccncc3)nc21 |
| 185 to 190 °C | CC(C)(C)C(=O)OCc1nc2cc3c(cc2c(=O)[nH]1)CCC3 |
| 150 to 151 °C | CS(=O)(=O)c1ccc(-c2cc(=O)n(Cc3ccc(F)cc3)nc2-c2ccc(F)cc2)cc1 |
| 215 to 217 °C | CCCCNC(=O)c1ccc(S(=O)(=O)NC(=O)c2ccc(C(=O)NCC(=O)OC)nc2)cc1 |
| 248 to 249 °C | COc1cc(N2CCOCC2)ccc1Nc1nc(Nc2ccc3c(c2OC)CCCC(=O)N3)ncc1Cl |
| 119 to 120 °C | CC(=O)Oc1cc(/C=C/c2ccccc2)cc(OC(C)=O)c1OC(C)=O |
| 76 to 77 °C | COc1ccccc1CCC1CNC(=O)O1 (stereo not given) |
| 146 °C | COCOc1c(Cl)ccc(-c2cc(NC(C)=O)c(Cl)c(C(=O)OC)n2)c1F |
| 128 to 129 °C | CCCCOc1ccc(Oc2ccc(C#CC(C)N(O)C(N)=O)o2)cc1 (stereo not given) |
| 135 to 137 °C | CSC1(C)C(=O)Nc2c(C(=O)c3ccccc3)cccc21 (stereo not given) |
| 132 to 133 °C | NC(=O)c1cccc(OCCCCCn2cnc3c(Cl)ncnc32)c1 |
| 202 to 204 °C | COc1ccc(-c2coc3cc(OC)cc(OC)c3c2=O)c(OC)c1 |
| 264 to 265 °C | Cn1c(C(F)(F)F)cc(=O)n(-c2ccc3snc(C(C)(C)C(=O)NS(C)(=O)=O)c3c2)c1=O |
